Reference: patent publication US9920040B2, “GPR40 agonists for the treatment of type II diabetes” (Janssen Pharmaceutica NV, priority 2015, dated 2018)
“And” between values parts separate entries of the source, which are not always exact repeats. Equal values may be shown once.

Biological target: T1, human GPR40 (Homo sapiens, UniProt O14842)
T1 construct: expressed in transfected cells
Assay: GPR40 calcium flux assay, human GPR40
Format: cell-based
Details: transfected HEK293 cells stably expressing human GPR40; multiple values = repeated testing; read-out: hGPR40 Ca^2+ Assay EC50
Experimental: Compounds were tested in a calcium flux assay using transfected HEK293 cells stably expressing either human GPR40 or rat GPR40. Human GPR40 expressing cells were cultured in DMEM-High Glucose media supplemented with 10% fetal bovine serum, 1×L-Glutamine, 1×Penicillin/Streptomycin and 500 μg/mL G418. Rat GPR40 expressing cells were cultured in DMEM-High Glucose media supplemented with 10% fetal bovine serum and 1 μg/mL puromycin. Cells were plated into poly-D-lysine coated 384-well plates and cultured overnight in a 37° C. humidified tissue culture incubator under 5% CO2/[…] atmosphere. On the day of the experiment, the culture media was replaced with assay buffer (HBSS, 20 mM HEPES, 0.1% BSA) and the cells incubated at 37° C. for 1 h. Calcium-sensitive fluorescent dye (Fluo 8 No-Wash Calcium Dye, ABD Bioquest) was then added and the cells incubated for another 30 min at 37° C. followed by 15 min at room temperature while protected from the light. The cell plate and a plate of diluted compounds of Formula (I) were loaded into a fluorescent plate reader that added compounds onto the cells while measuring the fluorescence intensity of each well. The plate reader recorded fluorescence intensity at 1 second intervals for 8 min and provided the data for analysis in an Excel format. EC50 values were calculated using Prism (GraphPad) software.

T1 sequence (O14842 whole entry): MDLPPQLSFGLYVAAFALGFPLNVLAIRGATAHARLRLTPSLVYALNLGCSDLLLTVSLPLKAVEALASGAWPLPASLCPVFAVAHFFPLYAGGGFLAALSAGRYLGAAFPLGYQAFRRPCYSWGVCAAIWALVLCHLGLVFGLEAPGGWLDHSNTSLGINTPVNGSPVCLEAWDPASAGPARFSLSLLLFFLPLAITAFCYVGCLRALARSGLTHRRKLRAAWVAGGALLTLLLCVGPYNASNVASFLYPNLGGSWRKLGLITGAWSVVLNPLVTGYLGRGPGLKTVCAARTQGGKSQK

Row | EC50 | SMILES
1 | 51 nM and 45 nM | COc1cc(-c2onc(COc3cccc([C@@H](CC(=O)O)C4CC4)c3)c2C=C(C)C)c(F)cn1 [Cpd 52, (3S)-3-cyclopropyl-3-[3-[[5-(5-fluoro-2-methoxy-4-pyridyl)-4-(2-methylprop-1-enyl)isoxazol-3-yl]methoxy]phenyl]propanoic acid]
2 | 320 nM and 211 nM | COc1ccc(F)c(-c2sc(Cl)c(COc3cccc([C@@H](CC(=O)O)C4CC4)c3)c2C(C)C(F)(F)F)c1 (stereo partly drawn) [Cpd 29, (3S)-3-[3-[[2-chloro-5-(2-fluoro-5-methoxy-phenyl)-4-(2,2,2-trifluoro-1-methyl-ethyl)-3-thienyl]methoxy]phenyl]-3-cyclopropyl-propanoic acid]
3 | 79 nM and 71 nM | CC1(C)CCC=C1c1c(COc2cccc([C@@H](CC(=O)O)C3CC3)c2)csc1-c1ccccc1 [Cpd 20, (3S)-3-cyclopropyl-3-[3-[[4-(5,5-dimethylcyclopenten-1-yl)-5-phenyl-3-thienyl]methoxy]phenyl]propanoic acid]
4 | 180 nM and 140 nM | CCOc1c(COc2cccc([C@@H](CC(=O)O)C3CC3)c2)noc1-c1cc(OC)ncc1F [Cpd 51, (3S)-3-cyclopropyl-3-[3-[[4-ethoxy-5-(5-fluoro-2-methoxy-4-pyridyl)isoxazol-3-yl]methoxy]phenyl]propanoic acid]
5 | 8 nM and 6 nM | COc1ccc(F)c(-c2onc(COc3cccc([C@@H](CC(=O)O)C4CC4)c3)c2CC(C)C)c1 [Cpd 35, (3S)-3-cyclopropyl-3-[3-[[5-(2-fluoro-5-methoxy-phenyl)-4-isobutyl-isoxazol-3-yl]methoxy]phenyl]propanoic acid]
6 | 215 nM and 178 nM | COc1ccc(F)c(-c2onc(COc3cccc([C@@H](CC(=O)O)C4CC4)c3)c2-c2sccc2C)c1 [Cpd 33, (3S)-3-cyclopropyl-3-[3-[[5-(2-fluoro-5-methoxy-phenyl)-4-(3-methyl-2-thienyl)isoxazol-3-yl]methoxy]phenyl]propanoic acid]
7 | 1270 nM | COc1cc(-c2onc(COc3cccc([C@@H](CC(=O)O)C4CC4)c3)c2CC(C)C)c(F)cn1 [Cpd 12, (3S)-3-cyclopropyl-3-[3-[[5-(5-fluoro-2-methoxy-4-pyridyl)-4-isobutyl-isoxazol-3-yl]methoxy]phenyl]propanoic acid]
8 | 53 nM and 51 nM and 22 nM and 13 nM and 87 nM and 71 nM | COc1ccc(F)c(-c2scc(COc3cccc([C@@H](CC(=O)O)C4CC4)c3)c2C2=CCCC2(C)C)c1 [Cpd 13, (3S)-3-cyclopropyl-3-[3-[[4-(5,5-dimethylcyclopenten-1-yl)-5-(2-fluoro-5-methoxy-phenyl)-3-thienyl]methoxy]phenyl]propanoic acid]
9 | 110 nM and 81 nM | CCOc1c(COc2cccc([C@@H](CC(=O)O)C3CC3)c2)noc1-c1cc(OC)ccc1F [Cpd 50, (3S)-3-cyclopropyl-3-[3-[[4-ethoxy-5-(2-fluoro-5-methoxy-phenyl)isoxazol-3-yl]methoxy]phenyl]propanoic acid]
10 | 31 nM and 27 nM | COc1ccc(F)c(-c2onc(COc3cccc([C@@H](CC(=O)O)C4CC4)c3)c2-c2ccc(C)s2)c1 [Cpd 32, (3S)-3-cyclopropyl-3-[3-[[5-(2-fluoro-5-methoxy-phenyl)-4-(5-methyl-2-thienyl)isoxazol-3-yl]methoxy]phenyl]propanoic acid]
11 | 32 nM and 27 nM | COc1ccc(F)c(-c2snc(COc3cccc([C@@H](CC(=O)O)C4CC4)c3)c2C2=CCCC2(C)C)c1 [Cpd 30, (3S)-3-cyclopropyl-3-[3-[[4-(5,5-dimethylcyclopenten-1-yl)-5-(2-fluoro-5-methoxy-phenyl)isothiazol-3-yl]methoxy]phenyl]propanoic acid]
12 | 67 nM and 56 nM | COc1ccc(F)c(-c2onc(COc3cccc([C@@H](CC(=O)O)C4CC4)c3)c2OCCC(F)(F)F)c1 [Cpd 49, (3S)-3-cyclopropyl-3-[3-[[5-(2-fluoro-5-methoxy-phenyl)-4-(3,3,3-trifluoropropoxy)isoxazol-3-yl]methoxy]phenyl]propanoic acid]
13 | 87 nM and 65 nM | CC1(C)CCC=C1c1c(COc2cccc([C@@H](CC(=O)O)C3CC3)c2)csc1-c1ccsc1 [Cpd 16, (3S)-3-cyclopropyl-3-[3-[[4-(5,5-dimethylcyclopenten-1-yl)-5-(3-thienyl)-3-thienyl]methoxy]phenyl]propanoic acid]
14 | 242 nM and 232 nM | CN(C)c1cccc(-c2scc(COc3cccc([C@@H](CC(=O)O)C4CC4)c3)c2C2=CCCC2(C)C)c1 [Cpd 17, (3S)-3-cyclopropyl-3-[3-[[5-[3-(dimethylamino)phenyl]-4-(5,5-dimethylcyclopenten-1-yl)-3-thienyl]methoxy]phenyl]propanoic acid]
15 | 5 nM | COc1ccc(F)c(-c2onc(COc3cccc([C@@H](CC(=O)O)C4CC4)c3)c2OC2CC(C)(C)CC(C)(C)C2)c1 [Cpd 3, (3S)-3-cyclopropyl-3-[3-[[5-(2-fluoro-5-methoxy-phenyl)-4-(3,3,5,5-tetramethylcyclohexoxy)isoxazol-3-yl]methoxy]phenyl]propanoic acid]
16 | 253 nM and 128 nM | COc1ccc(F)c(-c2scc(COc3cccc([C@@H](CC(=O)O)C4CC4)c3)c2C(C)C(F)(F)F)c1 (stereo partly drawn) [Cpd 19, (3S)-3-cyclopropyl-3-[3-[[5-(2-fluoro-5-methoxy-phenyl)-4-(2,2,2-trifluoro-1-methyl-ethyl)-3-thienyl]methoxy]phenyl]propanoic acid]

The remaining lines, values behind:

Row | SMILES | EC50
17 | COc1ccc(F)c(-c2onc(COc3cccc([C@@H](CC(=O)O)C4CC4)c3)c2OC(C)C)c1 [Cpd 42, (3S)-3-cyclopropyl-3-[3-[[5-(2-fluoro-5-methoxy-phenyl)-4-isopropoxy-isoxazol-3-yl]methoxy]phenyl]propanoic acid] | 19 nM and 15 nM
18 | COc1cc(-c2scc(COc3cccc([C@@H](CC(=O)O)C4CC4)c3)c2C2=CCCC2(C)C)c(F)cn1 [Cpd 27, (3S)-3-cyclopropyl-3-[3-[[4-(5,5-dimethylcyclopenten-1-yl)-5-(5-fluoro-2-methoxy-4-pyridyl)-3-thienyl]methoxy]phenyl]propanoic acid] | 53 nM and 42 nM
19 | COc1cc(-c2scc(COc3cccc([C@@H](CC(=O)O)C4CC4)c3)c2C2=CCCC2(C)C)ccn1 [Cpd 31, (3S)-3-cyclopropyl-3-[3-[[4-(5,5-dimethylcyclopenten-1-yl)-5-(2-methoxy-4-pyridyl)-3-thienyl]methoxy]phenyl]propanoic acid] | 258 nM and 162 nM
20 | COc1ccc(F)c(-c2onc(COc3cccc([C@@H](CC(=O)O)C4CC4)c3)c2OC2CCCC2)c1 [Cpd 40, (3S)-3-[3-[[4-(cyclopentoxy)-5-(2-fluoro-5-methoxy-phenyl)isoxazol-3-yl]methoxy]phenyl]-3-cyclopropyl-propanoic acid] | 8 nM and 7 nM
21 | COc1ccc(F)c(-c2onc(COc3cccc([C@@H](CC(=O)O)C4CC4)c3)c2C2CC2)c1 [Cpd 37, (3S)-3-cyclopropyl-3-[3-[[4-cyclopropyl-5-(2-fluoro-5-methoxy-phenyl)isoxazol-3-yl]methoxy]phenyl]propanoic acid] | 65 nM and 55 nM
22 | COc1ccc(F)c(-c2onc(COc3cccc([C@@H](CC(=O)O)C4CC4)c3)c2-c2ccccc2)c1 [Cpd 34, (3S)-3-cyclopropyl-3-[3-[[5-(2-fluoro-5-methoxy-phenyl)-4-phenyl-isoxazol-3-yl]methoxy]phenyl]propanoic acid] | 168 nM and 140 nM
23 | COc1ccc(F)c(-c2onc(COc3cccc([C@@H](CC(=O)O)C4CC4)c3)c2OCC2C(C)(C)C2(C)C)c1 [Cpd 11, (3S)-3-cyclopropyl-3-[3-[[5-(2-fluoro-5-methoxy-phenyl)-4-[(2,2,3,3-tetramethylcyclopropyl)methoxy]isoxazol-3-yl]methoxy]phenyl]propanoic acid] | 58 nM
24 | COc1cc(-c2onc(COc3cccc([C@@H](CC(=O)O)C4CC4)c3)c2OCC(C)C)c(F)cn1 [Cpd 47, (3S)-3-cyclopropyl-3-[3-[[5-(5-fluoro-2-methoxy-4-pyridyl)-4-isobutoxy-isoxazol-3-yl]methoxy]phenyl]propanoic acid] | 20 nM and 16 nM
25 | COc1ccc(F)c(-c2scc(COc3cccc([C@@H](CC(=O)O)C4CC4)c3)c2C2CC2)c1 [Cpd 14, (3S)-3-cyclopropyl-3-[3-[[4-cyclopropyl-5-(2-fluoro-5-methoxy-phenyl)-3-thienyl]methoxy]phenyl]propanoic acid] | 108 nM and 89 nM
26 | CC1(C)CCC=C1c1c(COc2cccc([C@@H](CC(=O)O)C3CC3)c2)csc1-c1ccccc1F [Cpd 21, (3S)-3-cyclopropyl-3-[3-[[4-(5,5-dimethylcyclopenten-1-yl)-5-(2-fluorophenyl)-3-thienyl]methoxy]phenyl]propanoic acid] | 110 nM and 66 nM
27 | COc1ccc(F)c(-c2onc(COc3cccc([C@@H](CC(=O)O)C4CC4)c3)c2OC2CCC2)c1 [Cpd 43, (3S)-3-[3-[[4-(cyclobutoxy)-5-(2-fluoro-5-methoxy-phenyl)isoxazol-3-yl]methoxy]phenyl]-3-cyclopropyl-propanoic acid] | 11 nM and 9 nM
28 | COc1ccc(F)c(-c2onc(COc3cccc([C@@H](CC(=O)O)C4CC4)c3)c2OCC(C)C)c1 [Cpd 39, (3S)-3-cyclopropyl-3-[3-[[5-(2-fluoro-5-methoxy-phenyl)-4-isobutoxy-isoxazol-3-yl]methoxy]phenyl]propanoic acid] | 5 nM and 4 nM
29 | CC1(C)CCC=C1c1c(COc2cccc([C@@H](CC(=O)O)C3CC3)c2)csc1-c1cccc2[nH]ccc12 [Cpd 24, (3S)-3-cyclopropyl-3-[3-[[4-(5,5-dimethylcyclopenten-1-yl)-5-(1H-indol-4-yl)-3-thienyl]methoxy]phenyl]propanoic acid] | 68 nM and 66 nM
